Source: patent US20210177856A1, “USE OF ATR INHIBITORS IN COMBINATION WITH PARP INHIBITORS” (Repare Therapeutics Inc., priority 2019, published 2021)

Assays:
[1] = test system: RPE1-hTERT TP53−/− RNASEH2B−/− cells; test: 6-day CTG viability assay, RPE1-hTERT TP53−/− RNASEH2B−/− cells; format: cell-based; conditions: Compound 43 combined with niraparib; compared with Compound 121 plus niraparib; FIGS. 3A and 3B
Experimental: Viability was measured with a 6-day CTG assay. Mean of three independent experiments±SD. Solid lines, non-linear least squares fit to a four-parameter dose-response model. IC50 values are indicated below panels. […] Viability was measured with a 6-day CTG assay. Mean of three independent experiments±SD. Solid lines, non-linear least squares fit to a four-parameter dose-response model. IC50 values are indicated below panels.

[2] = test system: 5637 RNASEH2B+/+ cells; test: ZIP synergy matrix and 7-day CTG viability assay, 5637 RNASEH2B+/+ cells; format: cell-based; conditions: combination of Compound 121 and niraparib, FIG. 1A
Experimental: (§1) FIG. 1A is chart showing ZIP synergy score matrix in RNASEH2B+/+ cells. […] Score of >10 indicates synergy, while <(−10) indicates antagonism. Dashed lines represent the IC50 value of each compound in the respective cell line. […] Viability was measured with a 7-day CTG assay. Mean of three independent experiments±SD. Solid lines, non-linear least squares fit to a four-parameter dose-response model. IC50 values are indicated below panels. […] Viability was measured with a 7-day CTG assay. Mean of three technical replicates±SD. Solid lines, non-linear least squares fit to a four-parameter dose-response model. IC50 values are indicated below panels.

[3] = test system: RPE1-hTERT TP53−/− CDK12−/− cells; test: 48 h treatment, CTG viability at day 6, RPE1-hTERT TP53−/− CDK12−/− cells; format: cell-based; conditions: 48-hr treatment with combination of Compound 121 and niraparib; FIGS. 7A and 7B
Experimental: (§2) Cells were treated for 48 h, followed by removal of the compounds and growth in fresh media. Viability was measured at day 6 by a CTG assay. Mean of three independent experiments±SD. Solid lines, non-linear least squares fit to a four-parameter dose-response model. IC50 values are indicated below panels. […] Cells were treated for 48 h, followed by removal of the compounds and growth in fresh media. Viability was measured at day 6 by a CTG assay. Mean of three independent experiments±SD. Solid lines, non-linear least squares fit to a four-parameter dose-response model. IC50 values are indicated below panels.

[4] = test system: DLD1 BRCA2−/− cells; test: 48 h treatment, CTG viability, DLD1 BRCA2−/− cells; format: cell-based; conditions: 48-hr treatment with combination of Compound 121 and talazoparib; FIGS. 8A and 8B
Experimental: (§3) FIG. 8A is a chart showing dose response curves of DLD1 BRCA2+/+ cells to talazoparib in the absence (DMSO) or presence of indicated concentrations of Compound 121. Cells were treated for 48 h, followed by removal of the compounds and growth in fresh media. Viability was measured at day 6 by a CTG assay. Mean of three independent experiments±SD. Solid lines, non-linear least squares fit to a four-parameter dose-response model. IC50 values are indicated below panels.
as §3, with “8B” for “8A”, “BRCA2−/−” for “BRCA2+/+”, “9” for “6”

[5] = test system: 5637 RNASEH2B−/− cells; test: ZIP synergy matrix and 7-day CTG viability assay, 5637 RNASEH2B−/− cells; format: cell-based; conditions: for concentration at maximum synergy, lower in RNASEH2B−/− than in RNASEH2B+/+ cells: FIGS. 1A and 1B
Experimental: as §1, with “1B” for “1A”, “RNASEH2B−/−” for “RNASEH2B+/+”

[6] = test system: ALT-positive (ALT+) cancer cell lines; test: Cell viability of ALT+ and ALT− cancer cell line panels; format: cell-based; conditions: combination of low-nanomolar doses of Compound 121 and talazoparib; five ALT+ lines; FIGS. 9A and 9B
Experimental: FIG. 9A is a chart showing cell viability for ALT+ and ALT− cell lines that were untreated, treated with talazoparib alone, treated with compound 121 alone, or treated with a combination of talazoparib and compound 121.
FIG. 9B is a chart showing the cell viability for ALT+ and ALT− cells that were treated with a combination of talazoparib and compound 121.

[7] = test system: MIAPACA2 ATM−/− cells; test: 48 h treatment, CTG viability at day 6, MIAPACA2 ATM−/− cells; format: cell-based; conditions: 48 h treatment with combination of niraparib and Compound 121; MIAPACA2 ATM CRISPR knockout; FIGS. 6A and 6B
Experimental: as §2, with “technical replicates±SD.” for “independent experiments±SD.”

[8] = test system: 5637 RNASEH2B+/+ and −/− cells; conditions: FIG. 5B
Experimental: FIG. 5A is a scheme showing the experimental design. 5637 cells were treated with niraparib alone or niraparib combined with an IC50 concentration of Compound 121 for indicated times with or without removal of compounds. Cell viability was analyzed by a CellTiter Glo (CTG) assay 168 h post treatment.
FIG. 5B is a chart showing apparent niraparib IC50 values in 5637 RNASEH2B+/+ and −/− cells from experiments described in FIG. 5A. Values were obtained by fitting mean data from three independent experiments to a four-parameter dose-response model. Error bars, 95% confidence interval (CI).
To guide the combined dosing of Compound 121 and niraparib in RNASEH2B-deficient tumor cells, a continuous 168 h concomitant treatment of 5637 RNASEH2B+/+ and −/− cells with both compounds was compared to either a 48 or 72 h treatment followed by removal of compounds and growth in drug-free media (FIG. 5A).

[9] = combination of Compound 121 and niraparib, 5637 cells

SMILES	sensitization of RNASEH2B-deficient cells [1]	synergy with niraparib (ZIP synergy score) [2]	sensitization of isogenic cell line lacking CDK12 [3]	sensitization of isogenic cell line lacking BRCA2 [4]	sensitization of RNASEH2B-deficient cells ([5]; Compound 121 combined with talazoparib, 5637 cells, 7-day CTG, FIGS. 4A and 4B)	synergy with niraparib (ZIP synergy score) ([5]; combination of Compound 121 and niraparib, 5637 RNASEH2B−/− cells, FIG. 1B)	concentration at maximum synergy, lower in RNASEH2B−/− than in RNASEH2B+/+ cells [5, 9]	sensitivity of ALT+ panel relative to ALT− control panel [6]	synergistic sensitization of ATM−/− clone [7] [×]	apparent IC50 value of niraparib ([8]; in presence of Compound 121 (IC50 concentration), dosed continuously for 168 h)	difference in apparent IC50 values of niraparib when treatment shortened ([8]; with Compound 121, 72 or 48 h treatment then drug-free media vs 168 h continuous)	shift of apparent IC50 of niraparib from RNASEH2B+/+ to RNASEH2B−/− cells ([5]; in presence of Compound 121, 5637 cells, 7-day CTG, FIGS. 2A and 2B) [fold]
C[C@@H]1COCCN1c1cc(-c2ccccc2S(C)(=O)=O)c2cnn(-c3cc[nH]n3)c2n1 [Compound 43]	sensitized RNASEH2B-deficient cells to a similar extent											
C[C@@H]1COCCN1c1cc([C@@]2(O)C[C@H]3CC[C@@H](C2)O3)c2cnn(-c3cc[nH]n3)c2n1 [Compound 121]		strongly synergized	synergistically sensitized	synergistically sensitized	strong sensitization	strongly synergized	ca. three-fold	more sensitive	> 300			
NC(=O)c1cccc2cn(-c3ccc([C@@H]4CCCNC4)cc3)nc12 [niraparib, reference compound]							ca. ten-fold			decreased	No significant difference	≤ 200
